Compound: CC[C@H](CO)Nc1nc(NCc2ccccc2)c2ncn(C(C)C)c2n1 [Seliciclib]
Test: relative viability (nuclei count vs DMSO), 5 days (fraction); higher = more cells survive
How it was run: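 Cells of lung cancer lines were placed in 1536-well plates and kept overnight at 37 °C. Pinning then delivered five library-drug doses (not always all listed), spaced by √10, onto plates anchored with vehicle, and the cells were left 5 days without changing medium. One step fixed, permeabilised and stained them with Hoechst, and MetaXpress counted nuclei in 4× images. Viability, as a median over plates, is treated-well nuclei divided by vehicle-well nuclei, with acceptance only at control CV below 25% and at least one doubling.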

Cell Line | relative viability (0.08 µM) | relative viability (0.253 µM) | relative viability (0.8 µM) | relative viability (2.53 µM) | relative viability (8 µM)
NCI-H441 | 1.07 | 1.01 | 1.06 | 0.783 | 0.566
NCI-H23 | 1.01 | 0.81 | 0.991 | 0.449 | 0.565
HARA | 0.927 | 1.08 | 1.01 | 0.945 | 0.844
NCI-H1792 | 0.938 | 0.939 | 0.944 |  | 0.791
NCI-H1703 | 0.947 | 0.905 | 1.04 | 0.951 | 0.965
NCI-H358 | 0.932 | 0.922 | 0.785 | 0.621 | 0.633
CAL-12T | 0.986 | 1.11 | 0.922 | 0.934 | 0.641
NCI-H727 | 0.85 | 0.891 | 0.8 | 0.796 | 0.75
NCI-H2085 | 1.01 | 1.04 | 1.01 | 0.961 | 0.873
NCI-H1395 | 0.978 | 0.725 | 0.857 | 0.789 | 0.94
SW 900 | 0.9 | 0.994 | 1.09 | 0.744 | 0.668
NCI-H460 | 0.952 | 1.13 | 0.996 | 1.04 | 0.889
A549 | 0.914 | 0.985 | 0.931 | 0.906 | 0.81
IA-LM | 1.01 | 1.1 | 0.919 | 1 | 0.819
EKVX | 0.946 | 1.03 | 0.862 | 0.923 | 0.844
ChaGo-K-1 | 1.05 | 0.995 | 0.923 | 0.935 | 0.912
SK-MES-1 | 0.999 | 1.03 | 0.942 | 1 | 0.857
NCI-H1755 | 1.01 | 0.995 | 0.951 | 0.99 | 0.989
NCI-H2228 | 0.974 | 0.88 | 1.01 | 0.923 | 0.753
NCI-H2087 | 1.03 | 1.08 | 0.956 | 0.836 | 0.791
LU99A | 0.962 | 0.836 | 0.953 | 0.69 | 0.775
NCI-H1355 | 0.977 | 0.959 | 0.89 | 0.905 | 0.959
NCI-H520 | 0.918 |  | 0.968 | 1.12 | 0.843
NCI-H661 | 0.964 | 1.02 | 0.966 | 0.916 | 0.756
NCI-H650 | 0.942 | 0.892 | 1.24 | 0.591 | 0.831
NCI-H647 | 0.971 | 0.836 | 1.03 | 0.939 | 0.754

Cell Line | relative viability (0.08 µM) | relative viability (0.253 µM) | relative viability (0.8 µM) | relative viability (2.53 µM) | relative viability (8 µM)
201T | 0.982 | 1.06 | 0.959 | 0.845 | 0.883
NCI-H838 | 0.945 | 0.956 | 0.944 | 0.926 | 0.805
SW 1573 | 1.03 | 0.989 | 0.888 | 0.913 | 0.757
PC-14 | 0.995 | 1.03 | 1.02 | 0.987 | 0.859
LK-2 | 0.99 | 0.737 | 0.966 | 0.759 | 0.69
COR-L23 | 1.02 | 1.15 | 1.06 | 1.01 | 0.821
NCI-H1648 | 0.922 | 1.11 | 1.18 | 0.721 | 0.704
HCC-78 | 1 | 1.05 | 0.91 | 0.703 | 0.733
NCI-H2405 | 0.919 | 1.02 | 0.976 | 0.804 | 0.872
SK-LU-1 | 1.03 | 1.05 | 1.07 | 0.975 | 0.782
EMC-BAC-2 | 0.978 | 0.894 | 1.03 | 0.654 | 0.811
NCI-H1650 | 0.926 | 1.1 | 0.95 | 0.824 | 0.663
NCI-H596 | 1.01 |  | 0.948 | 0.991 | 0.872
LCLC-97TM1 | 0.984 | 1 | 0.911 | 0.473 | 0.651
H3255 | 1.07 | 0.94 | 1.08 | 0.965 | 0.888
LXF-289 | 0.983 | 1.2 | 0.972 | 1.02 | 0.91
NCI-H2342 | 0.967 | 0.74 | 0.947 | 0.842 | 0.905
UMC-11 | 0.974 | 0.872 | 1.03 | 0.926 | 0.824
LC-2-ad | 1 | 1.14 | 0.973 | 0.846 | 0.888
NCI-H2170 | 0.93 | 0.697 | 0.897 | 0.997 | 0.946
A-427 | 1.03 | 1.02 | 1.02 | 0.883 | 0.967
NCI-H322M | 0.932 | 1.09 | 0.798 | 0.799 | 0.753
HCC-366 | 1.01 | 1.06 | 0.998 | 1.03 | 0.938
NCI-H1975 | 0.949 | 0.822 | 0.993 | 0.8 | 0.843
NCI-H1437 | 0.965 | 1.12 | 0.968 | 0.95 | 0.872
NCI-H2009 | 1.03 | 1.16 | 1.03 | 0.996 | 0.994

Cell Line | relative viability (0.08 µM) | relative viability (0.253 µM) | relative viability (0.8 µM) | relative viability (2.53 µM) | relative viability (8 µM)
NCI-H1651 | 1.01 | 0.974 | 0.958 | 0.895 | 0.906
LCLC-103H | 1 | 0.934 | 0.929 | 0.836 | 0.914
NCI-H1666 | 0.955 | 1.13 | 1.01 | 0.866 | 0.829
NCI-H1734 | 1.02 | 0.802 | 1.04 | 0.812 | 0.741
EPLC-272H | 0.982 | 0.876 | 0.863 | 0.863 | 0.844
NCI-H2023 | 0.989 | 0.956 | 0.964 | 0.857 | 0.725
BEN | 1.04 | 0.82 | 1.03 | 0.907 | 0.817
COR-L 105 | 0.932 | 1.14 | 0.924 | 0.851 | 0.902
ABC-1 | 0.995 | 1.12 | 1 | 0.615 | 0.582
HCC-15 | 1.04 | 1.06 | 0.925 | 0.926 | 0.764
NCI-H1793 | 0.86 | 0.771 | 0.785 | 0.859 | 0.764
PC-3 [JPC-3] | 1.03 | 1.08 | 0.994 | 0.928 | 0.913
NCI-H1993 | 0.979 | 0.761 | 0.884 | 0.723 | 0.633
NCI-H1944 | 0.983 | 0.947 | 0.898 | 0.73 | 0.707
NCI-H1563 | 1.03 | 0.872 | 1.06 | 0.833 | 0.897
EBC-1 | 0.945 | 0.84 | 1.06 | 0.985 | 0.663
NCI-H1915 | 0.982 | 1.02 | 0.956 | 0.933 | 0.856
RERF-LC-KJ | 0.935 | 0.903 | 0.96 | 0.985 | 0.878
LOU-NH91 | 0.789 | 0.916 | 0.919 | 0.85 | 0.723
NCI-H2347 | 0.982 | 1.08 | 0.936 | 0.994 | 0.95
NCI-H2126 | 0.965 | 0.931 | 0.961 | 0.663 | 0.829
HCC-827 | 1.04 | 1.07 | 1.01 | 1.05 | 0.907
Calu-6 | 0.991 | 1.13 | 1.01 | 1.01 | 0.891
NCI-H3122 | 0.994 | 0.947 | 0.883 | 0.983 | 0.894
HOP-62 | 1.04 | 1.1 | 1.08 | 1 | 0.94
HCC-44 | 1 | 1.05 | 1.01 | 0.931 | 0.899
